According to ChEMBL document CHEMBL1145332, “Design of inhibitors of orotidine monophosphate decarboxylase using bioisosteric replacement and determination of inhibition kinetics” (J Med Chem, 2006):

Target: T1, Orotidine 5'-phosphate decarboxylase (Saccharomyces cerevisiae S288c, UniProt P03962)
T1 sequence (P03962 whole entry): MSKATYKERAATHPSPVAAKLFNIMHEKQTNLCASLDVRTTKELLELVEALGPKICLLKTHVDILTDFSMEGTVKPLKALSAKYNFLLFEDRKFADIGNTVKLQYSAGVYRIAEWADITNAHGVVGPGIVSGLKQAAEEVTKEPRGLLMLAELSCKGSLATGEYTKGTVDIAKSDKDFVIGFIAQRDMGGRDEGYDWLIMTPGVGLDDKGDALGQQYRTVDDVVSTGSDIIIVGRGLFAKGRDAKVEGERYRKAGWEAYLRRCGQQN
Assay: Inhibition of Saccharomyces cerevisiae ODCase at 25 degreeC by competitive binding assay

Ki: 64 nM
SMILES: O=c1cnn([C@@H]2O[C@H](COP(=O)(O)O)[C@@H](O)[C@H]2O)c(=O)[nH]1 [6-AZA-URIDINE MONOPHOSPHATE]
